# In patent US9932340B2, “Substituted indoles” (AbbVie Inc., priority 2014, dated 2018):
# Biological target: SUV420H1 enzyme (Homo sapiens, UniProt Q4FZB7)
# Assay: TR-FRET SAH SUV420H1 enzyme inhibition assay
# Type: biochemical
# Details: Histone Peptide H4(8-30)me1 and SAM, overnight at room temp, TR-FRET detection of SAH, read-out: TR-FRET SAH_SUV420H1 IC50
# Procedure, shortened: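 SUV420H1 (90 nM) preincubated 30 min with compound (3-fold dilutions, 50 to 0.00075 μM), then H4(8-30)me1 peptide 5 nM and SAM 4 nM added, overnight at room temp. SAH product detected by TR-FRET with Tb anti-SAH antibody and Oregon Green-SAH in RIPA buffer, 4 h; IC50 from Hill fit, asymptotes fixed 0-100%.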
# Chain of SUV420H1 enzyme (Q4FZB7 whole entry): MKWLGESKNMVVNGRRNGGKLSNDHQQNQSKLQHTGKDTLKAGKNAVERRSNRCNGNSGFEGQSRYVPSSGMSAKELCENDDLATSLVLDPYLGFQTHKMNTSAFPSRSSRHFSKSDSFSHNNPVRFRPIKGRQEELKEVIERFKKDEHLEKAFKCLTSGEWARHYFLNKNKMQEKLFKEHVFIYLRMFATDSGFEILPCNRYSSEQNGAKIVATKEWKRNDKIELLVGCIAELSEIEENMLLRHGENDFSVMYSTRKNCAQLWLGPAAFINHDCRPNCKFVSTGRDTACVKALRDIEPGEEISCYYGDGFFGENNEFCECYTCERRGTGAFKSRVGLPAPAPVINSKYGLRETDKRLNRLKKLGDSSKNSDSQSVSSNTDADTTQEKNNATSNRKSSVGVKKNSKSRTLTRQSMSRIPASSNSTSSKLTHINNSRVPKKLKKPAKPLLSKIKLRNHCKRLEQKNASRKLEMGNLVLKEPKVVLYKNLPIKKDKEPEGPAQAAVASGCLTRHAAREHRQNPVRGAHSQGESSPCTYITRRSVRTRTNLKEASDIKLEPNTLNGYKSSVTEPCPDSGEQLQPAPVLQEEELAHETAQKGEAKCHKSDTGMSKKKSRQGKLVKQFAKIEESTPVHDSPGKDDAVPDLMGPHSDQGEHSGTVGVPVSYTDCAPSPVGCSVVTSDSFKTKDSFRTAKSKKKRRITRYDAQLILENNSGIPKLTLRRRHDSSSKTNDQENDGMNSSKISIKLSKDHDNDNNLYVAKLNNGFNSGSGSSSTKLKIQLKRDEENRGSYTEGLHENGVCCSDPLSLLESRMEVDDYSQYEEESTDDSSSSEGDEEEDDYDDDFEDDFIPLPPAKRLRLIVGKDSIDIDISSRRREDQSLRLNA
row,IC50,Compound
1,82.8 nM,"Cc1noc(C)c1C(=O)NCc1cc2cc(-c3ccc(CC#N)cc3)cc(Cn3cnc4c(N)ncnc43)c2[nH]1 [Example 175, N-({7-[(6-amino-9H-purin-9-yl)methyl]-5-[4-(cyanomethyl)phenyl]-1H-indol-2-yl}methyl)-3,5-dimethyl-1,2-oxazole-4-carboxamide]"
2,87.5 nM,"Cc1noc(C)c1C(=O)NCc1cc2cc(-c3ccc(C(=O)N(C)C)cc3)cc(Cn3cnc4c(N)ncnc43)c2[nH]1 [Example 176, N-({7-[(6-amino-9H-purin-9-yl)methyl]-5-[4-(dimethylcarbamoyl)phenyl]-1H-indol-2-yl}methyl)-3,5-dimethyl-1,2-oxazole-4-carboxamide]"
3,106 nM,"Cc1noc(C)c1C(=O)NCc1cc2cc(-c3cccc(C(=O)N(C)C)c3)cc(Cn3cnc4c(N)ncnc43)c2[nH]1 [Example 177, N-({7-[(6-amino-9H-purin-9-yl)methyl]-5-[3-(dimethylcarbamoyl)phenyl]-1H-indol-2-yl}methyl)-3,5-dimethyl-1,2-oxazole-4-carboxamide]"
4,116 nM,"Cc1noc(C)c1C(=O)NCc1cc2cc(-c3cccc(C(=O)NC4CC4)c3)cc(Cn3cnc4c(N)ncnc43)c2[nH]1 [Example 178, N-({7-[(6-amino-9H-purin-9-yl)methyl]-5-[3-(cyclopropylcarbamoyl)phenyl]-1H-indol-2-yl}methyl)-3,5-dimethyl-1,2-oxazole-4-carboxamide]"
5,365 nM,"Cc1noc(C)c1C(=O)NCc1cc2cc(-c3cccc(N4CCOCC4)c3)cc(Cn3cnc4c(N)ncnc43)c2[nH]1 [Example 179, N-({7-[(6-amino-9H-purin-9-yl)methyl]-5-[3-(morpholin-4-yl)phenyl]-1H-indol-2-yl}methyl)-3,5-dimethyl-1,2-oxazole-4-carboxamide]"
6,130 nM,"Cc1noc(C)c1C(=O)NCc1cc2cc(-c3cccc(C(=O)N4CCOCC4)c3)cc(Cn3cnc4c(N)ncnc43)c2[nH]1 [Example 180, N-({7-[(6-amino-9H-purin-9-yl)methyl]-5-[3-(morpholin-4-ylcarbonyl)phenyl]-1H-indol-2-yl}methyl)-3,5-dimethyl-1,2-oxazole-4-carboxamide]"
7,2860 nM,"CCc1oncc1C(=O)NCc1cc2cc(Cl)cc(Cn3cnc4c(N)ncnc43)c2[nH]1 [Example 181, N-({7-[(6-amino-9H-purin-9-yl)methyl]-5-chloro-1H-indol-2-yl}methyl)-5-ethyl-1,2-oxazole-4-carboxamide]"
8,5200 nM,"Cc1cc(C(=O)NCc2cc3cc(Cl)cc(Cn4cnc5c(N)ncnc54)c3[nH]2)nn1C [Example 182, N-({7-[(6-amino-9H-purin-9-yl)methyl]-5-chloro-1H-indol-2-yl}methyl)-1,5-dimethyl-1H-pyrazole-3-carboxamide]"
9,1780 nM,"Cc1cc(C(=O)NCc2cc3cc(Cl)cc(Cn4cnc5c(N)ncnc54)c3[nH]2)n(C)n1 [Example 183, N-({7-[(6-amino-9H-purin-9-yl)methyl]-5-chloro-1H-indol-2-yl}methyl)-1,3-dimethyl-1H-pyrazole-5-carboxamide]"
10,840 nM,"Cc1nn(C)cc1C(=O)NCc1cc2cc(Cl)cc(Cn3cnc4c(N)ncnc43)c2[nH]1 [Example 184, N-({7-[(6-amino-9H-purin-9-yl)methyl]-5-chloro-1H-indol-2-yl}methyl)-1,3-dimethyl-1H-pyrazole-4-carboxamide]"
11,691 nM,"CCc1onc(C)c1C(=O)NCc1cc2cc(Cl)cc(Cn3cnc4c(N)ncnc43)c2[nH]1 [Example 185, N-({7-[(6-amino-9H-purin-9-yl)methyl]-5-chloro-1H-indol-2-yl}methyl)-5-ethyl-3-methyl-1,2-oxazole-4-carboxamide]"
12,263 nM,"CCc1noc(C)c1C(=O)NCc1cc2cc(Cl)cc(Cn3cnc4c(N)ncnc43)c2[nH]1 [Example 186, N-({7-[(6-amino-9H-purin-9-yl)methyl]-5-chloro-1H-indol-2-yl}methyl)-3-ethyl-5-methyl-1,2-oxazole-4-carboxamide]"
13,1870 nM,"CC(C)c1oncc1C(=O)NCc1cc2cc(Cl)cc(Cn3cnc4c(N)ncnc43)c2[nH]1 [Example 187, N-({7-[(6-amino-9H-purin-9-yl)methyl]-5-chloro-1H-indol-2-yl}methyl)-5-(propan-2-yl)-1,2-oxazole-4-carboxamide]"
14,507 nM,"CCn1nc(C)c(C(=O)NCc2cc3cc(Cl)cc(Cn4cnc5c(N)ncnc54)c3[nH]2)c1C [Example 188, N-({7-[(6-amino-9H-purin-9-yl)methyl]-5-chloro-1H-indol-2-yl}methyl)-1-ethyl-3,5-dimethyl-1H-pyrazole-4-carboxamide]"
15,3360 nM,"Nc1ncnc2c1ncn2Cc1cc(Cl)cc2cc(CNC(=O)c3cnoc3C3CC3)[nH]c12 [Example 189, N-({7-[(6-amino-9H-purin-9-yl)methyl]-5-chloro-1H-indol-2-yl}methyl)-5-cyclopropyl-1,2-oxazole-4-carboxamide]"
16,910 nM,"Cc1noc(C2CC2)c1C(=O)NCc1cc2cc(Cl)cc(Cn3cnc4c(N)ncnc43)c2[nH]1 [Example 190, N-({7-[(6-amino-9H-purin-9-yl)methyl]-5-chloro-1H-indol-2-yl}methyl)-5-cyclopropyl-3-methyl-1,2-oxazole-4-carboxamide]"
17,2980 nM,"Cn1nc(C(=O)NCc2cc3cc(Cl)cc(Cn4cnc5c(N)ncnc54)c3[nH]2)c2c1CCC2 [Example 191, N-({7-[(6-amino-9H-purin-9-yl)methyl]-5-chloro-1H-indol-2-yl}methyl)-1-methyl-1,4,5,6-tetrahydrocyclopenta[c]pyrazole-3-carboxamide]"
18,2140 nM,"Nc1ncnc2c1ncn2Cc1cc(Cl)cc2cc(CNC(=O)c3cnn4c3CCCC4)[nH]c12 [Example 192, N-({7-[(6-amino-9H-purin-9-yl)methyl]-5-chloro-1H-indol-2-yl}methyl)-4,5,6,7-tetrahydropyrazolo[1,5-a]pyridine-3-carboxamide]"
19,20000 nM,"Nc1ncnc2c1ncn2Cc1cc(Cl)cc2cc(CNC(=O)c3cnccn3)[nH]c12 [Example 193, N-({7-[(6-amino-9H-purin-9-yl)methyl]-5-chloro-1H-indol-2-yl}methyl)pyrazine-2-carboxamide]"
20,1950 nM,"Nc1ncnc2c1ncn2Cc1cc(Cl)cc2cc(C(N)c3ccccc3)[nH]c12 (stereo not drawn) [Example 194, 9-({2-[amino(phenyl)methyl]-5-chloro-1H-indol-7-yl}methyl)-9H-purin-6-amine]"
21,> 50000 nM,"Nc1ncnc2c1ncn2Cc1cc(Cl)cc2cc(CNC(=O)c3ccccn3)[nH]c12 [Example 195, N-({7-[(6-amino-9H-purin-9-yl)methyl]-5-chloro-1H-indol-2-yl}methyl)pyridine-2-carboxamide]"
22,905 nM,"Nc1ncnc2c1ncn2Cc1cc(Cl)cc2cc(CNC(=O)c3cccnc3)[nH]c12 [Example 196, N-({7-[(6-amino-9H-purin-9-yl)methyl]-5-chloro-1H-indol-2-yl}methyl)pyridine-3-carboxamide]"
23,1070 nM,"Nc1ncnc2c1ncn2Cc1cc(Cl)cc2cc(CNC(=O)c3cccc(O)n3)[nH]c12 [Example 197, N-({7-[(6-amino-9H-purin-9-yl)methyl]-5-chloro-1H-indol-2-yl}methyl)-6-hydroxypyridine-2-carboxamide]"
24,12600 nM,"Nc1ncnc2c1ncn2Cc1cc(Cl)cc2cc(CNC(=O)c3ccc[nH]c3=O)[nH]c12 [Example 198, N-({7-[(6-amino-9H-purin-9-yl)methyl]-5-chloro-1H-indol-2-yl}methyl)-2-oxo-1,2-dihydropyridine-3-carboxamide]"
